These results are taken from US8309554B2 (priority 2008, dated 2012).

Counter-ions that a name gives are not always drawn. Like-named read-outs stand apart in the source and are kept apart here.

Broadly, the IC50 is the point on the concentration scale where inhibition reaches its midpoint.

One assay concerns HT29. Kind of assay: cells. Type of assay: cell-based. The following applies: for IC50: Homo sapiens, HT-29, 2 h.
For another assay, the system named is H460. Description: cells. Type of assay: cell-based. As to conditions: for IC50: Homo sapiens, NCI-H460, 2 h.

As to `O=[N+]([O-])c1sccc1C(Cc1cnc(OCCO)c(Cl)c1)S(=O)(=O)Oc1ccc(N(CCCl)CCCl)cc1` (stereo not shown) [TH-1420], the IC50 was above 300 µM with HT29 (read-out: 2 hr Air HT29 IC50), above 300 µM with HT29 (read-out: 2 hr N2 HT29 IC50), 80 µM in the assay with H460 (read-out: 2 hr Air H460 IC50) and 1.3 µM in the assay on H460 (read-out: 2 hr N2 H460 IC50). In addition, the “H460 HCR: Air/N2” value in the assay with H460 turned out to be 62.
On to `O=[N+]([O-])c1sccc1C(CCS(=O)(=O)N1CCC(O)CC1)S(=O)(=O)Oc1ccc(N(CCCl)CCCl)cc1` (stereo not shown) [TH-1347], for which, in the assay on HT29, the “HT29 HCR: Air/N2” value is on record as 20. In addition, the IC50 came to 398 µM in the assay with HT29 (read-out: 2 hr Air HT29 IC50), 20 µM in the assay on HT29 (read-out: 2 hr N2 HT29 IC50), 136 µM in the assay with H460 (read-out: 2 hr Air H460 IC50) and 1.8 µM with H460 (read-out: 2 hr N2 H460 IC50). Besides, in the assay on H460, the “H460 HCR: Air/N2” value is given as 76.
Take `O=[N+]([O-])c1sccc1C(Cc1ccc2c(c1)nnn2CCO)S(=O)(=O)Oc1ccc(N(CCCl)CCCl)cc1` (stereo not shown) [TH-1451, 3-(4-(N,N-bis-(2-Chloroethyl)amino)phenoxysulfonyl-(1-(2-hydroxyethyl)benzotriazol-5-yl-methyl))methyl-2-nitrothiophene]: the “HT29 HCR: Air/N2” value in the assay with HT29 amounted to 42. The IC50 is 250 µM with HT29 (read-out: 2 hr Air HT29 IC50), 6 µM with HT29 (read-out: 2 hr N2 HT29 IC50), 110 µM with H460 (read-out: 2 hr Air H460 IC50) and 1 µM in the assay with H460 (read-out: 2 hr N2 H460 IC50). Moreover, the “H460 HCR: Air/N2” value in the assay with H460 turned out to be 110.
Take `O=[N+]([O-])c1sccc1C(CCS(=O)(=O)c1ccc(C(F)(F)F)cn1)S(=O)(=O)Oc1ccc(N(CCCl)CCCl)cc1` (stereo not shown) [TH-1369]: the half-maximal inhibitory concentration (IC50) was above 1000 µM in the assay on HT29 (read-out: 2 hr Air HT29 IC50), above 1000 µM in the assay on HT29 (read-out: 2 hr N2 HT29 IC50), 236 µM in the assay with H460 (read-out: 2 hr Air H460 IC50) and 1.8 µM in the assay on H460 (read-out: 2 hr N2 H460 IC50). In addition, the “H460 HCR: Air/N2” value in the assay with H460 is reported as 131.
Take `Nc1ccc(CC(c2ccsc2[N+](=O)[O-])S(=O)(=O)Oc2ccc(N(CCCl)CCCl)cc2)cn1` (stereo not shown) [TH-1255, 3-(4-(N,N-bis-(2-Chloroethyl)amino)phenoxysulfonyl-(2-aminopyridin-5-yl-methyl))methyl-2-nitrothiophene trifluoroacetate]: in the assay on HT29, the “HT29 HCR: Air/N2” value is 16. In addition, the 50% inhibitory concentration (IC50) in the assay on HT29 (read-out: 2 hr Air HT29 IC50) was determined as 204 µM; with HT29 (read-out: 2 hr N2 HT29 IC50) it was 13 µM; in the assay with H460 (read-out: 2 hr Air H460 IC50) it was 61.4 µM; in the assay on H460 (read-out: 2 hr N2 H460 IC50), 2 µM. Also, the “H460 HCR: Air/N2” value with H460 came to 30.7.
With `Nc1ccc(CC(c2ccsc2[N+](=O)[O-])S(=O)(=O)Oc2ccc(N(CCCl)CCCl)cc2)cc1.O=C(O)C(F)(F)F` (stereo not shown) [TH-1330, 3-(4-(N,N-bis-(2-Chloroethyl)amino)phenoxysulfonyl-(4-aminophenylmethyl))methyl-2-nitrothiophene], the “HT29 HCR: Air/N2” value in the assay with HT29 stood at 21. Moreover, the IC50 with HT29 (read-out: 2 hr Air HT29 IC50) is 186 µM; with HT29 (read-out: 2 hr N2 HT29 IC50) it was 9 µM; in the assay on H460 (read-out: 2 hr Air H460 IC50) it was 228 µM; with H460 (read-out: 2 hr N2 H460 IC50), 0.9 µM. Moreover, the “H460 HCR: Air/N2” value in the assay with H460 stood at 253.
As for `CC(=O)Nc1ccc(CC(c2ccsc2[N+](=O)[O-])S(=O)(=O)Oc2ccc(N(CCCl)CCCl)cc2)cn1` (stereo not shown) [TH-1271], in the assay on HT29, the “HT29 HCR: Air/N2” value came to 1.3. Besides, the IC50 amounted to 977 µM in the assay on HT29 (read-out: 2 hr Air HT29 IC50), 760 µM with HT29 (read-out: 2 hr N2 HT29 IC50), 236 µM in the assay on H460 (read-out: 2 hr Air H460 IC50) and 1 µM with H460 (read-out: 2 hr N2 H460 IC50). Besides, the “H460 HCR: Air/N2” value with H460 is reported as 236.
In the case of `Cn1ccnc1CC(c1ccsc1[N+](=O)[O-])S(=O)(=O)Oc1ccc(N(CCCl)CCCl)cc1` (stereo not shown) [TH-1366], the “HT29 HCR: Air/N2” value in the assay with HT29 stood at 14. The IC50 with HT29 (read-out: 2 hr Air HT29 IC50) was 180 µM; with HT29 (read-out: 2 hr N2 HT29 IC50), 13 µM; in the assay on H460 (read-out: 2 hr Air H460 IC50), 20 µM; with H460 (read-out: 2 hr N2 H460 IC50) it was 0.5 µM. The “H460 HCR: Air/N2” value with H460 was found to be 40.
Regarding `O=[N+]([O-])c1sccc1C(Cc1ccc(C(F)(F)F)nc1)S(=O)(=O)Oc1ccc(N(CCCl)CCCl)cc1` (stereo not shown) [TH-1423], the IC50 in the assay with HT29 (read-out: 2 hr Air HT29 IC50) is above 300 µM; with HT29 (read-out: 2 hr N2 HT29 IC50), above 300 µM; with H460 (read-out: 2 hr Air H460 IC50) it was 300 µM; with H460 (read-out: 2 hr N2 H460 IC50), 0.4 µM. Further, the “H460 HCR: Air/N2” value in the assay on H460 was 750.
Take `CN(C)c1ccc(CC(c2ccsc2[N+](=O)[O-])S(=O)(=O)Oc2ccc(N(CCCl)CCCl)cc2)cn1` (stereo not shown) [TH-1316]: the IC50 is above 300 µM in the assay on HT29 (read-out: 2 hr Air HT29 IC50), above 300 µM in the assay on HT29 (read-out: 2 hr N2 HT29 IC50), 179 µM in the assay with H460 (read-out: 2 hr Air H460 IC50) and 1 µM in the assay with H460 (read-out: 2 hr N2 H460 IC50). Further, in the assay with H460, the “H460 HCR: Air/N2” value was 179.
In the case of `CC(=O)Nc1cc(CC(c2ccsc2[N+](=O)[O-])S(=O)(=O)Oc2ccc(N(CCCl)CCCl)cc2)ccn1` (stereo not shown) [TH-1376], the “HT29 HCR: Air/N2” value in the assay on HT29 is 10. For the same compound, the IC50 with HT29 (read-out: 2 hr Air HT29 IC50) worked out at 540 µM; in the assay on HT29 (read-out: 2 hr N2 HT29 IC50), 52 µM; with H460 (read-out: 2 hr Air H460 IC50) it was 212 µM; in the assay on H460 (read-out: 2 hr N2 H460 IC50), 0.9 µM. Further, the “H460 HCR: Air/N2” value in the assay with H460 is listed as 236.
Consider `O=[N+]([O-])c1sccc1C(Cc1ccc2nnn(CCO)c2c1)S(=O)(=O)Oc1ccc(N(CCCl)CCCl)cc1` (stereo not shown) [TH-1457, 3-(4-(N,N-bis-(2-Chloroethyl)amino)phenoxysulfonyl-(1-(2-hydroxyethyl)benzotriazol-6-yl-methyl))methyl-2-nitrothiophene], for which the “HT29 HCR: Air/N2” value in the assay on HT29 was determined as 45. The half-inhibitory concentration (IC50) with HT29 (read-out: 2 hr Air HT29 IC50) amounted to 180 µM; in the assay with HT29 (read-out: 2 hr N2 HT29 IC50) it was 4 µM; with H460 (read-out: 2 hr Air H460 IC50), 120 µM; in the assay with H460 (read-out: 2 hr N2 H460 IC50) it was 0.5 µM. In the assay with H460, the “H460 HCR: Air/N2” value came out at 240.
Turning to `CN(C)S(=O)(=O)CCC(c1ccsc1[N+](=O)[O-])S(=O)(=O)Oc1ccc(N(CCCl)CCCl)cc1` (stereo not shown) [TH-1360], the half-maximal inhibitory concentration (IC50) with HT29 (read-out: 2 hr Air HT29 IC50) is above 1000 µM; with HT29 (read-out: 2 hr N2 HT29 IC50), above 1000 µM; in the assay with H460 (read-out: 2 hr Air H460 IC50), around 300 µM; in the assay on H460 (read-out: 2 hr N2 H460 IC50), 4.3 µM. Also, the “H460 HCR: Air/N2” value in the assay on H460 was around 70.
